Assay results from ChEMBL document CHEMBL4321836, “Discovery of BAY-298 and BAY-899: Tetrahydro-1,6-naphthyridine-Based, Potent, and Selective Antagonists of the Luteinizing Hormone Receptor Which Reduce Sex Hormone Levels in Vivo” (J Med Chem, 2019).

What was measured:
[1] = target: Lutropin-choriogonadotropic hormone receptor (Homo sapiens, UniProt P22888); assay: Antagonist activity at human luteinizing hormone receptor assessed as reduction in agonist-induced cAMP production preincubated for 20 mins followed by agonist solution addition after 60 mins by cell based TR-FRET assay; format: functional
[2] = Apparent permeability across apical to basolateral side in human Caco2 cells at 2 uM after 2 hrs by LC-MS/MS analysis; format: ADME, cell-based; conditions: Caco-2
[3] = target: T1, Follicle-stimulating hormone receptor (Homo sapiens, UniProt P23945); assay: Antagonist activity at human follicle stimulating hormone receptor assessed as reduction in agonist-induced cAMP production preincubated for 20 mins followed by agonist solution addition and measured after 120 mins by cell based TR-FRET assay; format: functional
T1 sequence (P23945 whole entry): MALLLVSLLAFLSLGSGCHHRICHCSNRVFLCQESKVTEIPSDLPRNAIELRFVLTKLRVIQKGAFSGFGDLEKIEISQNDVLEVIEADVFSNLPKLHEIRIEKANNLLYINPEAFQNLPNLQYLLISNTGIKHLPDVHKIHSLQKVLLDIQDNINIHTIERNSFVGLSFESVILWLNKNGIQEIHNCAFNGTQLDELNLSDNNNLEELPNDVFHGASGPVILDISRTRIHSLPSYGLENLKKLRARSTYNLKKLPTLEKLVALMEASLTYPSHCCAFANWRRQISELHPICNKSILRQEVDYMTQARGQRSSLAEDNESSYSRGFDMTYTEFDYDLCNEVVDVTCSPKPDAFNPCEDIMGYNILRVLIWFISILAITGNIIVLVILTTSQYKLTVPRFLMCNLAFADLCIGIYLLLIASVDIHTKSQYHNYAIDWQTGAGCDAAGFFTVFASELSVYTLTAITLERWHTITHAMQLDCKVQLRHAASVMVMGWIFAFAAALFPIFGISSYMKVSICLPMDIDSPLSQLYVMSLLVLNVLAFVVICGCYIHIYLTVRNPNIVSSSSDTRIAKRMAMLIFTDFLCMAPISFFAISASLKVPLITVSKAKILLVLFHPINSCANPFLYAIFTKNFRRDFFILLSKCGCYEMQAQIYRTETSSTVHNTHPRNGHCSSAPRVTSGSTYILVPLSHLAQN

[4] = Lipophilicity, logD of the compound at pH 7.5 by reversed-phase HPLC; format: physicochemical; conditions: buffer
[5] = Maximum oral bioavailability in rat liver microsomes based well stirred liver model at 1 uM measured after 2 to 60 mins in presence of glucose-6-phosphate by LC-MS/MS analysis; format: ADME, Microsome; conditions: read-out: Fmax
Homo sapiens = species: Homo sapiens; assay: Selectivity ratio of IC50 for human thyroid stimulating hormone receptor expressed in rat HTC133 cells to human luteinizing hormone receptor; format: cell-based
[6] = Half life in Wistar rat at 2 mg/kg, po after 8 to 72 hrs by LC-MS/MS analysis; format: ADME, organism-based; conditions: in vivo
[7] = target: T2, Adenosine receptor A3 (Homo sapiens) (UniProt P0DMS8); assay: Antagonist activity at human A3 receptor expressed in CHO-K1 cells at 10 uM after 20 mins by HTRF assay relative to control; format: cell-based; design: scale not given: the % may be the effect or the level left
T2 sequence (whole entry): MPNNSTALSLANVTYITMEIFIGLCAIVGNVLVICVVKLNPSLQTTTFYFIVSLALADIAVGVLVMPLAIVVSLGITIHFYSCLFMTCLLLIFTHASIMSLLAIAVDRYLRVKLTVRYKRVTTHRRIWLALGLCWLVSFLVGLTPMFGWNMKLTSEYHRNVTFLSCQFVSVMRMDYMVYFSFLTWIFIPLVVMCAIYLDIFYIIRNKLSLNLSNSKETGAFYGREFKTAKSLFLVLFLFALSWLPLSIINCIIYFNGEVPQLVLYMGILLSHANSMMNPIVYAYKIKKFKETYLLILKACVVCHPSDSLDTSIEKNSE

[8] = target: T3, Alpha-1A adrenergic receptor (Homo sapiens) (UniProt P35348); assay: Agonist activity at human alpha1A adrenergic receptor expressed in CHO-K1 cells at 10 uM by fluorimetric method relative to control; format: cell-based
T3 sequence (whole entry): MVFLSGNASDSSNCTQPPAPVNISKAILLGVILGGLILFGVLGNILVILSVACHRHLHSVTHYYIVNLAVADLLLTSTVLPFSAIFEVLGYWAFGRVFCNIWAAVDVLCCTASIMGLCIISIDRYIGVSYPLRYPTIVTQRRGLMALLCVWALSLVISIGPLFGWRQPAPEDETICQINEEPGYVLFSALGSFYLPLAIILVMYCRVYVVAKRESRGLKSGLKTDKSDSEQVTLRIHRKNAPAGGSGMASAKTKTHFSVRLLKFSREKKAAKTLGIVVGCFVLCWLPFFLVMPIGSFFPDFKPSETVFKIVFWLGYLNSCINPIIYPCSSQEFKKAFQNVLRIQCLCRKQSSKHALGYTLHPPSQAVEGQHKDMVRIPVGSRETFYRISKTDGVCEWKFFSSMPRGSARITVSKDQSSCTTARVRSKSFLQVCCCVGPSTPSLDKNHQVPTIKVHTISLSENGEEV

[9] = target: Beta-2 adrenergic receptor (Homo sapiens) (UniProt P07550); assay: Antagonist activity at human beta2 adrenergic receptor expressed in CHO-K1 cells at 10 uM after 30 mins HTRF assay relative to control; format: cell-based; design: scale not given: the % may be the effect or the level left
[10] = target: Melanocortin receptor 4 (Homo sapiens) (UniProt P32245); assay: Antagonist activity at human MC4 receptor expressed in CHO-K1 cells at 10 uM after 30 mins by HTRF assay relative to control; format: cell-based; design: scale not given: the % may be the effect or the level left
[11] = target: T4, Prostaglandin E2 receptor EP3 subtype (Homo sapiens) (UniProt P43115); assay: Antagonist activity at human EP3 receptor expressed in […] cells at 10 uM by spectrophotometric method relative to control; format: cell-based; design: scale not given: the % may be the effect or the level left
T4 sequence (whole entry): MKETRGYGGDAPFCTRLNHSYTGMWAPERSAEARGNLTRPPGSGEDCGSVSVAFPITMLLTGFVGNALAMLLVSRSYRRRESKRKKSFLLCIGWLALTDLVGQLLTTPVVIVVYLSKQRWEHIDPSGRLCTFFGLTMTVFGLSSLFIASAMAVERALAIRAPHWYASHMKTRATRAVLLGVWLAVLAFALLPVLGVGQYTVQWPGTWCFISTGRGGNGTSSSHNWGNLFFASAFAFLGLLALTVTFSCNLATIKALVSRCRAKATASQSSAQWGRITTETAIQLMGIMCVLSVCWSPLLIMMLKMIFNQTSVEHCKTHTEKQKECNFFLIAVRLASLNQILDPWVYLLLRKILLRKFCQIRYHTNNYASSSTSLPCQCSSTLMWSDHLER

[12] = target: P2Y purinoceptor 2 (Homo sapiens) (UniProt P41231); assay: Antagonist activity at human P2Y2 receptor expressed in human 1321N1 cells at 10 uM by fluorimetric method relative to control; format: cell-based; design: scale not given: the % may be the effect or the level left
[13] = target: Somatostatin receptor type 4 (Homo sapiens) (UniProt P31391); assay: Agonist activity at human sst4 expressed in CHO-K1 cells at 10 uM after 10 mins by HTRF assay relative to control; format: cell-based
Chain of Somatostatin receptor type 4 (Homo sapiens) (P31391 whole entry): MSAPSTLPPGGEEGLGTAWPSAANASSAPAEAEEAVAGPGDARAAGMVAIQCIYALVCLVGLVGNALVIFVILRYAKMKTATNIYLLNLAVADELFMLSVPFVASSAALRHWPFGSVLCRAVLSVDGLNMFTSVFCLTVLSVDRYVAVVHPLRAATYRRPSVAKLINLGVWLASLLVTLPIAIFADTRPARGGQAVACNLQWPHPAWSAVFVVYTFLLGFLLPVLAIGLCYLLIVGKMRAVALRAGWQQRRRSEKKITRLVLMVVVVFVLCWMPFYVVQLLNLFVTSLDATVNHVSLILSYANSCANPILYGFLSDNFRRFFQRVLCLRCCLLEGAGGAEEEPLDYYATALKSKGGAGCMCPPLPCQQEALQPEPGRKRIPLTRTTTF

Chain of Melanocortin receptor 4 (Homo sapiens) (P32245 whole entry): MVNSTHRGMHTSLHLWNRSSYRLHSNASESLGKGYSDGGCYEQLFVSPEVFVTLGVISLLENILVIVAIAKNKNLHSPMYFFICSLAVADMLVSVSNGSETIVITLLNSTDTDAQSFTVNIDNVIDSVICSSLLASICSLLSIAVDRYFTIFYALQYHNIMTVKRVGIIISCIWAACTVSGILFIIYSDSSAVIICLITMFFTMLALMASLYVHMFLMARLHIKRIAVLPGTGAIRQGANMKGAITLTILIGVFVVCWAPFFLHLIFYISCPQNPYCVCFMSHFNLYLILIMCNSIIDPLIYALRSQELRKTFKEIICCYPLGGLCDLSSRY
Chain of Lutropin-choriogonadotropic hormone receptor (P22888 whole entry): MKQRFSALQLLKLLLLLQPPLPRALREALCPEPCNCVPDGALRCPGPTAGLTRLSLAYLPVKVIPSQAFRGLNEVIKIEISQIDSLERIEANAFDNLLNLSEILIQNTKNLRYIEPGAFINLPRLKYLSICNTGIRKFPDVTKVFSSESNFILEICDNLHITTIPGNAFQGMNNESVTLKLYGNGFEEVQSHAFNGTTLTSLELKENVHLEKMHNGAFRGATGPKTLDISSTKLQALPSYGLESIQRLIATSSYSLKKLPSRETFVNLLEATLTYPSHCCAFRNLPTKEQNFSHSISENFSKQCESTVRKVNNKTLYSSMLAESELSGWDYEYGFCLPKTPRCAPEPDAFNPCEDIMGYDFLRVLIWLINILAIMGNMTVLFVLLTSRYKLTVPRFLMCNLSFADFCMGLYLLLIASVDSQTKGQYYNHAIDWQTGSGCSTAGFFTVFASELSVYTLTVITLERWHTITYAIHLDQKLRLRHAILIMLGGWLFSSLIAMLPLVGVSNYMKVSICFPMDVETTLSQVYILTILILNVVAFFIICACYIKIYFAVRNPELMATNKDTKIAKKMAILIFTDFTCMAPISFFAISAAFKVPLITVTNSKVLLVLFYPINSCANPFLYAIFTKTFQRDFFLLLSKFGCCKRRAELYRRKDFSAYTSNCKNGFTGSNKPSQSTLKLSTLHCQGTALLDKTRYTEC
Chain of Beta-2 adrenergic receptor (Homo sapiens) (P07550 whole entry, looked up): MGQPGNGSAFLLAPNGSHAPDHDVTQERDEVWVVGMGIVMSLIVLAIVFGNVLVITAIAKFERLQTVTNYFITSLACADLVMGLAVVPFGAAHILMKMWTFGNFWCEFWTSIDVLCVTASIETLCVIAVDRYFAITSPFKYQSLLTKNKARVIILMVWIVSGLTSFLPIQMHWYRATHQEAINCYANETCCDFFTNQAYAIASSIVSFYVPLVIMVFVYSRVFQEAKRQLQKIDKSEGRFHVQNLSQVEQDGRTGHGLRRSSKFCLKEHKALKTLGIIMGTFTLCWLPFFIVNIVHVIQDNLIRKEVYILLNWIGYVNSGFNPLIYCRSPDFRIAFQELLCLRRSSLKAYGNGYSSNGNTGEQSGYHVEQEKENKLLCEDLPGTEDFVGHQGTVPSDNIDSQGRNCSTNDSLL
Chain of P2Y purinoceptor 2 (Homo sapiens) (P41231 whole entry): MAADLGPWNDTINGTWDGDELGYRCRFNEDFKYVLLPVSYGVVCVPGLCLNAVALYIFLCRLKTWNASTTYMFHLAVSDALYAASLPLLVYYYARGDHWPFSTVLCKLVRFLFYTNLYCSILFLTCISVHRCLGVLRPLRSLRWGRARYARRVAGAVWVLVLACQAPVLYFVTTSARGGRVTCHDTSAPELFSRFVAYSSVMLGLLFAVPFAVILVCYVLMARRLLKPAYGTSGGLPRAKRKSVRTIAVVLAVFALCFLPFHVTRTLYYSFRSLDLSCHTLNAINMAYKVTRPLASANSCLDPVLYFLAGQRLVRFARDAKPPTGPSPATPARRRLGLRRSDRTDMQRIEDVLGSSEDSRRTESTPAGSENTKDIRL

Structure (SMILES) | IC50 [1] | Papp A→B at 2 h, 2 µM [2] | IC50 [3] | chromatographic logD [4] | Fh at 1 µM [5] | Ratio IC50 (Homo sapiens) | half-life [6] | Activity [7] | Activity [8] | Activity [9] | Activity [10] | Activity [11] | Activity [12] | Activity [13]
O=C(Nc1ccc(Oc2ccc(F)cc2)cc1)N1CCc2ncccc2[C@@H]1c1ccc(Cl)cc1 | 96 nM | 1.5 ×10⁻⁶ cm/s | > 16000 nM | 4.7 | 94% | 24 | 12 h | < 70% | < 70% | < 70% | < 70% | < 70% | < 70% | < 70%
O=C(Nc1cnc(Oc2ccc(F)cc2)nc1)N1CCc2ncccc2[C@@H]1c1ccc(F)cc1 [BAY-899] | 185 nM | 8.9 ×10⁻⁶ cm/s | > 16000 nM | 2.8 | 95% | > 100 | 33 h | < 70% | < 70% | < 70% | < 70% | < 70% | < 70% | < 70%
